Reference: US20070135490A1, “Phenetanolamine derivatives” (priority 2003, published 2007)

target: T1, human beta-2 receptor (Homo sapiens, UniProt P07550); test: Chinese hamster ovary cells co-expressing the human receptor with a reporter gene, cAMP measurement in whole cells or membranes (Method 2); assay type: cell-based; conditions: CHO cells or membranes, read-out: pEC50 at the human beta-2 receptor (converted)
T1 construct: expressed in transfected cells; host or cells: Chinese hamster ovary cells (whole cells or membranes derived from them)
Method: Potency of compounds of the invention at the human beta 2, 1 and 3 receptors was also determined using Chinese hamster ovary cells co-expressing the human receptor with a reporter gene. Studies were performed using either whole cells or membranes derived from those cells.
The three beta-receptors are coupled via the Gs G-protein to cause a simulation of adenylate cyclase resulting in increased levels of cAMP in the cell. For direct cAMP measurements either membranes or cells have been used with either the HitHunter enzyme fragment complementation kit (DiscoveRx) or the FP^2 fluorescence polarisation kit (Perkin Elmer) to quantify the levels of cAMP present. These assays provide a measure of agonist potency and intrinsic activity of the compounds at the various receptors. […]
In this assay the potency of compounds at the human beta-2 receptor is expressed as a pEC50 value. Compounds of examples 12-26, 28-50 and 52-64 had pEC50 values greather than 6. […] No result is available for the compound of example 51.

T1 sequence (P07550 whole entry): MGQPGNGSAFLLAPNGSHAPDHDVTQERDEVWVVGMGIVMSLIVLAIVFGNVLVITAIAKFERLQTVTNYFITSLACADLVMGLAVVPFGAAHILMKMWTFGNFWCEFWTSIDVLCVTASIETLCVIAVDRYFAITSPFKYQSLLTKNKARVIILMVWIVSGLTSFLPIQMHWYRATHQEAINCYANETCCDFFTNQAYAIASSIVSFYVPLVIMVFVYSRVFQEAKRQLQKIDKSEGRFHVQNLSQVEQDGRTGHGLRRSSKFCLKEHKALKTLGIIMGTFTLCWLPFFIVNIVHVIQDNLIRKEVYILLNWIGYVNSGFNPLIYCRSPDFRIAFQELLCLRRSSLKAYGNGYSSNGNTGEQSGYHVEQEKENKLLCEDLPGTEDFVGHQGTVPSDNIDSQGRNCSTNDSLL

EC50, < 1 µM:
NS(=O)(=O)c1cccc(CCCCOCc2cccc(CCNC[C@H](O)c3ccc(O)c(CO)c3)c2)c1 [Example 12, Formic acid compound with 3-[4-({3-[2-({(2R)-2-Hydroxy-2-[4-hydroxy-3-(hydroxymethyl)phenyl]ethyl}amino)ethyl]benzyl}oxy)butyl]benzenesulfonamide (1:1)]
N#Cc1cccc(COCCOCc2cccc(CCNC[C@H](O)c3ccc(O)c(CO)c3)c2)c1 [Example 13, Formic acid compound with 3-{[2-({3-[2-({(2R)-2-hydroxy-2-[4-hydroxy-3-(hydroxymethyl)phenyl]ethyl}amino)ethyl]benzyl}oxy)ethoxy]methyl}benzonitrile (1:1)]
OCc1cc([C@@H](O)CNCCc2cccc(COCCOCc3c(Cl)cccc3Cl)c2)ccc1O [Example 14, Formic acid compound with 4-[(1R)-2-({2-[3-({2-[(2,6-dichlorobenzyl)oxy]ethoxy}methyl)phenyl]ethyl}amino)-1-hydroxyethyl]-2-(hydroxymethyl)phenol (1:1)]
OCc1cc([C@@H](O)CNCCc2cccc(COCCOCc3cccc(F)c3)c2)ccc1O [Example 15, Formic acid compound with 4-[(1R)-2-({2-[3-({2-[(3-fluorobenzyl)oxy]ethoxy}methyl)phenyl]ethyl}amino)-1-hydroxyethyl]-2-(hydroxymethyl)phenol (1:1)]
Cc1cc(C)cc(COCCOCc2cccc(CCNC[C@H](O)c3ccc(O)c(CO)c3)c2)c1 [Example 16, Formic acid compound with 4-[(1R)-2-({2-[3-({2-[(3,5-dimethylbenzyl)oxy]ethoxy}methyl)phenyl]ethyl}amino)-1-hydroxyethyl]-2-(hydroxymethyl)phenol (1:1)]
COc1cccc(COCCOCc2cccc(CCNC[C@H](O)c3ccc(O)c(CO)c3)c2)c1 [Example 17, Formic acid compound with 4-[(1R)-1-hydroxy-2-({2-[3-({2-[(3-methoxybenzyl)oxy]ethoxy}methyl)phenyl]ethyl}amino)ethyl]-2-(hydroxymethyl)phenol (1:1)]
OCc1cc([C@@H](O)CNCCc2cccc(COCCOCc3cccc(OC(F)(F)F)c3)c2)ccc1O [Example 18, Formic acid compound with 2-(hydroxymethyl)-4-{(1R)-1-hydroxy-2-[(2-{3-[(2-{[3-(trifluoromethoxy)benzyl]oxy}ethoxy)methyl]phenyl}ethyl)amino]ethyl}phenol (1:1)]
OCc1cc([C@@H](O)CNCCc2cccc(COCCCCc3cccc(O)c3)c2)ccc1O [Example 19, Formic acid compound with 4-((1R)-1-hydroxy-2-{[2-(3-{[4-(3-hydroxyphenyl)butoxy]methyl}phenyl)ethyl]amino}ethyl)-2-(hydroxymethyl)phenol (1:1)]
N#Cc1ccc(CCCOCc2cccc(CCNC[C@H](O)c3ccc(O)c(CO)c3)c2)cc1 [Example 20, Formic acid compound with 4-[3-({3-[2-({(2R)-2-hydroxy-2-[4-hydroxy-3-(hydroxymethyl)phenyl]ethyl}amino)ethyl]benzyl}oxy)propyl]benzonitrile (1:1)]
N#Cc1ccc(CCCCOCc2cccc(CCNC[C@H](O)c3ccc(O)c(CO)c3)c2)cc1 [Example 21, Formic acid compound with 4-[4-({3-[2-({(2R)-2-hydroxy-2-[4-hydroxy-3-(hydroxymethyl)phenyl]ethyl}amino)ethyl]benzyl}oxy)butyl]benzonitrile (1:1)]
N#Cc1cccc(CCCOCc2cccc(CCNC[C@H](O)c3ccc(O)c(CO)c3)c2)c1 [Example 22, Formic acid compound with 3-[3-({3-[2-({(2R)-2-hydroxy-2-[4-hydroxy-3-(hydroxymethyl)phenyl]ethyl}amino)ethyl]benzyl}oxy)propyl]benzonitrile (1:1)]
CS(=O)(=O)c1ccc(CCCOCc2cccc(CCNC[C@H](O)c3ccc(O)c(CO)c3)c2)cc1 [Example 23, Formic acid compound with 2-(hydroxymethyl)-4-[(1R)-1-hydroxy-2-({2-[3-({3-[4-(methylsulfonyl)phenyl]propoxy}methyl)phenyl]ethyl}amino)ethyl]phenol (1:1)]
CS(=O)(=O)c1ccc(COCc2cccc(CCNC[C@H](O)c3ccc(O)c(CO)c3)c2)cc1 [Example 24, Formic acid compound with 2-(hydroxymethyl)-4-[(1R)-1-hydroxy-2-({2-[3-({[4-(methylsulfonyl)benzyl]oxy}methyl)phenyl]ethyl}amino)ethyl]phenol (1:1)]
OCc1cc([C@@H](O)CNCCc2cccc(COCCc3ccccc3O)c2)ccc1O [Example 25, Formic acid compound with 4-((1R)-1-hydroxy-2-{[2-(3-{[2-(2-hydroxyphenyl)ethoxy]methyl}phenyl)ethyl]amino}ethyl)-2-(hydroxymethyl)phenol (1:1)]
OCc1cc([C@@H](O)CNCCc2cccc(COCc3ccc(O)cc3)c2)ccc1O [Example 26, Formic acid compound with 4-((1R)-1-hydroxy-2-{[2-(3-{[(4-hydroxybenzyl)oxy]methyl}phenyl)ethyl]amino}ethyl)-2-(hydroxymethyl)phenol (1:1)]
OCc1cc([C@@H](O)CNCCc2cccc(COCCCc3cccc(O)c3)c2)ccc1O [Example 28, Formic acid compound with 4-((1R)-1-hydroxy-2-{[2-(3-{[3-(3-hydroxyphenyl)propoxy]methyl}phenyl)ethyl]amino}ethyl)-2-(hydroxymethyl)phenol (1:1)]
O=S(=O)(c1ccc(CCCCOCc2cccc(CCNC[C@H](O)c3ccc(O)c(CO)c3)c2)cc1)C1CCCC1 [Example 29, Formic acid compound with 4-[(1R)-2-({2-[3-({4-[4-(cyclopentylsulfonyl)phenyl]butoxy}methyl)phenyl]ethyl}amino)-1-hydroxyethyl]-2-(hydroxymethyl)phenol (1:1)]
O=S(=O)(c1ccc(CCCOCc2cccc(CCNC[C@H](O)c3ccc(O)c(CO)c3)c2)cc1)C1CCCC1 [Example 30, Formic acid compound with 4-[(1R)-2-({2-[3-({3-[4-(cyclopentylsulfonyl)phenyl]propoxy}methyl)phenyl]ethyl}amino)-1-hydroxyethyl]-2-(hydroxymethyl)phenol (1:1)]
O=S(=O)(c1cccc(CCCOCc2cccc(CCNC[C@H](O)c3ccc(O)c(CO)c3)c2)c1)C1CCCC1 [Example 31, Formic acid compound with 4-[(1R)-2-({2-[3-({3-[3-(cyclopentylsulfonyl)phenyl]propoxy}methyl)phenyl]ethyl}amino)-1-hydroxyethyl]-2-(hydroxymethyl)phenol (1:1)]
OCc1cc([C@@H](O)CNCCc2cccc(COCCOCc3cccc(O)c3)c2)ccc1O [Example 32, Formic acid compound with 4-[(1R)-1-hydroxy-2-({2-[3-({2-[(3-hydroxybenzyl)oxy]ethoxy}methyl)phenyl]ethyl}amino)ethyl]-2-(hydroxymethyl)phenol (1:1)]
O=S(=O)(c1cccc(COCCOCc2cccc(CCNC[C@H](O)c3ccc(O)c(CO)c3)c2)c1)C1CCCC1 [Example 33, Formic acid compound with 4-{(1R)-2-[(2-{3-[(2-{[3-(cyclopentylsulfonyl)benzyl]oxy}ethoxy)methyl]phenyl}ethyl)amino]-1-hydroxyethyl}-2-(hydroxymethyl)phenol (1:1)]
[O-][S+](c1cccc(COCCOCc2cccc(CCNC[C@H](O)c3ccc(O)c(CO)c3)c2)c1)C1CCCC1 (stereo partly drawn) [Example 34, Formic acid compound with 4-{(1R)-2-[(2-{3-[(2-{[3-(cyclopentylsulfinyl)benzyl]oxy}ethoxy)methyl]phenyl}ethyl)amino]-1-hydroxyethyl}-2-(hydroxymethyl)phenol (1:1)]
O=S(=O)(c1cccc(COCc2cccc(CCNC[C@H](O)c3ccc(O)c(CO)c3)c2)c1)C1CCCC1 [Example 35, Formic acid compound with 4-[(1R)-2-({2-[3-({[3-(cyclopentylsulfonyl)benzyl]oxy}methyl)phenyl]ethyl}amino)-1-hydroxyethyl]-2-(hydroxymethyl)phenol (1:1)]
[O-][S+](c1cccc(CCCCOCc2cccc(CCNC[C@H](O)c3ccc(O)c(CO)c3)c2)c1)C1CCCC1 (stereo partly drawn) [Example 36, Formic acid compound with 4-[(1R)-2-({2-[3-({4-[3-(cyclopentylsulfinyl)phenyl]butoxy}methyl)phenyl]ethyl}amino)-1-hydroxyethyl]-2-(hydroxymethyl)phenol (1:1)]
N#Cc1cccc(CCCCOCc2cccc(CCNC[C@H](O)c3ccc(O)c(CO)c3)c2)c1 [Example 37, Formic acid compound with 3-[4-({3-[2-({(2R)-2-hydroxy-2-[4-hydroxy-3-(hydroxymethyl)phenyl]ethyl}amino)ethyl]benzyl}oxy)butyl]benzonitrile (1:1)]
